The assay has as its target T1, GPCR P2Y6 receptor complex (Homo sapiens, UniProt Q15077).
T1 construct: made in house; host or cells: baculovirus-inoculated insect cell (membrane fragments)
As to the kind of experiment: Nanocalorimetry measurement of agonist binding to a GPCR, amplified by G-protein hydrolysis of GTP. Format: biochemical. As to conditions: after merging [UDP]=0.4 mM, [GTP]=1.15 mM. From the text: We have measured reactions involving agonist binding to a GPCR (G-protein coupled receptor), at low GPCR concentration, by using the associated G-protein hydrolysis of GTP as the source of the amplified heat of reaction. Most of the heat in this example is from GTP hydrolysis by G-proteins activated by a GPCR with a bound agonist. GPCRs are transmembrane proteins that bind […] (e.g. agonist or inhibitor) on the extracellular side and, upon receptor binding, cause a G-protein (also a membrane protein) on the intracellular side to exchange GDP for GTP. After binding GTP, the G-protein dissociates from the GPCR, and the α subunit dissociates from the β-γ complex. The α subunit and β-γ complex can then migrate independently along the membrane and interact with targets.
Explaining this measurement in terms of FIG. 2A, the GPCR is the primary enzyme 44. We refer to the GPCR as an enzyme because it catalyzes the exchange of GDP for GTP on the G-protein and the subsequent dissociation of the α subunit of the G-protein from the β-γ complex. The G-protein before the GDP-GTP exchange and dissociation can be considered the substrate 40. The GPCR is also […], and as such it is activated in this example by binding of agonist, which is therefore an activator 42. The products 46 of the primary enzymatic reaction are the α subunit and β-γ complex of the dissociated G-protein. […]

The results in this text go back to patent US7745161B2, “Amplification of enzymatic reactions for use with an enthalpy array” (Palo Alto Research Center Incorporated, priority 2003, dated 2010).

T1 sequence (Q15077 whole entry, the tested form may be a part, one chain of several): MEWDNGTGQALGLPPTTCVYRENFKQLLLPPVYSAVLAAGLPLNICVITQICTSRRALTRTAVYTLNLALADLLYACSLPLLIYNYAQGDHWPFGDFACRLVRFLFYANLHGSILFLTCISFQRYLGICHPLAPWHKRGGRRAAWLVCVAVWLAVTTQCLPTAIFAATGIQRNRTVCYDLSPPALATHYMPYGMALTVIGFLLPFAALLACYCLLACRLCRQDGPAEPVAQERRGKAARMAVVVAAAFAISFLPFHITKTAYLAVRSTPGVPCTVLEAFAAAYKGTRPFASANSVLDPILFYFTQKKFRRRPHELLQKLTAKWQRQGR

`O=c1ccn([C@@H]2O[C@H](COP(=O)(O)OP(=O)(O)O)[C@@H](O)[C@H]2O)c(=O)[nH]1` [UDP]: where the note is “fragmented membranes with over-expressed P2Y6, 1 mg/ml total protein, 250 nL drops”, the “nanocalorimeter signal magnitude (differential temperature)” value came out at 1.2 m° C. The “duration of nanocalorimeter signal after the drops are merged” value (fragmented membranes with over-expressed P2Y6) was 1 to 2 s.
